Reference: DBAASP
≈ marks a conversion by molar mass, not a printed value. Where “and” joins values, the source holds several entries; their conditions need not be identical. Equal values may be shown once. One block for each molecule: values may come before it.

Experiments:
Test in all cases: ≥ marks a high value that may be exact or a test limit, other limits are often not marked, values filed in µg/mL are converted to µM
Klebsiella aerogenes = test system: Klebsiella aerogenes
[1] = test system: Pseudomonas aeruginosa PAO1
[2] = test system: Bacillus subtilis IFO 3513
[3] = test system: Escherichia coli IFO 12734
[4] = test system: Staphylococcus aureus IFO 12732
[5] = test system: Micrococcus luteus ATCC 9341
[6] = test system: Bacillus subtilis KCTC 3068
[7] = test system: Escherichia coli KCTC 1682
[8] = test system: Pseudomonas aeruginosa KCTC 1637
[9] = test system: Salmonella typhimurium KCTC 1926
[10] = test system: Staphylococcus aureus KCTC 1916
[11] = test system: Staphylococcus epidermidis KCTC 1917
[12] = test system: Aspergillus flavus KCTC 7375
[13] = test system: Bacillus megaterium KCTC 1096
[14] = test system: Bacillus subtilis KCTC 1918
[15] = test system: Candida albicans KCTC 7121
[16] = test system: Fusarium oxysporum KCTC 6084
Proteus vulgaris = test system: Proteus vulgaris
[17] = test system: Staphylococcus aureus KCTC 1621
[18] = test system: Trichosporon beigelii KCTC 7251
Candida albicans = test system: Candida albicans
[19] = test system: Pseudomonas aeruginosa ATCC 27853
[20] = test system: Staphylococcus aureus ATCC 49476
Staphylococcus aureus MR = test system: Staphylococcus aureus MR
Bacillus subtilis 168 = test system: Bacillus subtilis 168
[21] = test system: Micrococcus luteus CCM 144
[22] = test system: Staphylococcus aureus MU50
[23] = test system: Staphylococcus aureus VRSA1
Bacillus cereus = test system: Bacillus cereus
Escherichia coli = test system: Escherichia coli
Leuconostoc lactis = test system: Leuconostoc lactis
Listeria innocua = test system: Listeria innocua
Micrococcus luteus = test system: Micrococcus luteus
Pasteurella multocida = test system: Pasteurella multocida
Staphylococcus aureus = test system: Staphylococcus aureus
[24] = test system: Staphylococcus epidermidis
Streptococcus uberis = test system: Streptococcus uberis

MIC (Klebsiella aerogenes): 7.77 µM and 3.88 µM | MIC [1]: 7.77 µM and 3.56 µM
Compound: CC(C)C[C@H](NC(=O)[C@H](CCCCN)NC(=O)[C@H](CCCCN)NC(=O)[C@H](Cc1ccccc1)NC(=O)[C@H](Cc1ccccc1)NC(=O)[C@H](CCCCN)NC(=O)[C@H](CCCCN)NC(=O)[C@H](Cc1ccccc1)NC(=O)[C@H](CCCN=C(N)N)NC(=O)[C@@H](N)CCCCN)C(=O)N[C@@H](CCCCN)C(=O)N[C@@H](CC(N)=O)C(=O)N[C@@H](CO)C(=O)N[C@H](C(=O)N[C@@H](CCCCN)C(=O)N[C@@H](CCCCN)C(=O)N[C@@H](CCCN=C(N)N)C(=O)N[C@@H](C)C(=O)N[C@@H](CCCCN)C(=O)N[C@@H](CCCCN)C(=O)N[C@@H](Cc1ccccc1)C(=O)N[C@@H](Cc1ccccc1)C(=O)N[C@@H](CCCCN)C(=O)N[C@@H](CCCCN)C(=O)O)C(C)C [KRFKKFFKKLKNSVKKRAKKFFKK]

MIC [2]: 7.28 µM (≈ 12.5 µg/mL) | MIC [3]: 29.1 µM (≈ 50 µg/mL) | MIC [4]: 7.28 µM (≈ 12.5 µg/mL)
Compound: CC[C@H](C)[C@H](NC(=O)[C@H](CC(C)C)NC(=O)[C@@H]1CCCN1C(=O)[C@H](Cc1c[nH]c2ccccc12)NC(=O)[C@H](CCCCN)NC(=O)[C@H](CCCCN)NC(=O)[C@@H]1CCCN1C(=O)[C@H](CCCCN)NC(=O)[C@H](CC(C)C)NC(=O)[C@@H]1CCCN1C(=O)[C@H](Cc1c[nH]c2ccccc12)NC(=O)[C@H](CCCN=C(N)N)NC(=O)[C@@H](N)CCCN=C(N)N)C(N)=O [RRWPLKPKKWPLI]

MIC [2]: 4.05 µM (≈ 6.25 µg/mL) | MIC [3]: 16.2 µM (≈ 25 µg/mL) | MIC [5]: 25 µM (≈ 38.5 µg/mL) | MIC [4]: 2.03 µM (≈ 3.13 µg/mL)
Compound: CC[C@H](C)[C@H](N)C(=O)N[C@@H](CC(C)C)C(=O)N1CCC[C@H]1C(=O)N[C@@H](CC(C)C)C(=O)N[C@@H](CCCCN)C(=O)N[C@@H](CC(C)C)C(=O)N1CCC[C@H]1C(=O)N[C@@H](CC(C)C)C(=O)N[C@@H](CC(C)C)C(=O)N1CCC[C@H]1C(=O)N[C@@H](CC(C)C)C(=O)N[C@@H](CCCN=C(N)N)C(=O)N[C@@H](CCCN=C(N)N)C(N)=O [ILPLKLPLLPLRR]

MIC [6]: 2 µM (≈ 4.33 µg/mL) | MIC [7]: 16 µM (≈ 34.7 µg/mL) | MIC [8]: ≥ 32 µM | MIC [9]: ≥ 64 µM | MIC [10]: 8 µM (≈ 17.3 µg/mL) | MIC [11]: ≥ 32 µM
Compound: CC[C@H](C)[C@H](NC(=O)[C@H](CCCN=C(N)N)NC(=O)[C@H](CC(C)C)NC(=O)[C@H](CCC(N)=O)NC(=O)[C@H](CCCCN)NC(=O)[C@H](CC(C)C)NC(=O)[C@H](CC(C)C)NC(=O)[C@H](CC(C)C)NC(=O)[C@@H](NC(=O)[C@H](CCCCN)NC(=O)[C@H](CC(=O)O)NC(=O)[C@H](C)NC(=O)[C@@H](NC(=O)[C@H](CCCCN)NC(=O)[C@@H](N)CCCCN)C(C)C)C(C)C)C(=O)N[C@@H](CCSC)C(=O)N[C@@H](CCCN=C(N)N)C(=O)N[C@@H](CC(C)C)C(=O)O [KKVADKVLLLKQLRIMRL]

MIC [12]: ≥ 200 µM | MIC [13]: 1.56 µM (≈ 2.78 µg/mL) | MIC [14]: 0.78 µM (≈ 1.39 µg/mL) | MIC [15]: ≥ 200 µM | MIC [7]: 12.5 µM (≈ 22.3 µg/mL) | MIC [16]: ≥ 200 µM | MIC (Proteus vulgaris): 3.12 µM (≈ 5.57 µg/mL) | MIC [8]: 3.12 µM (≈ 5.57 µg/mL) | MIC [17]: 3.12 µM (≈ 5.57 µg/mL) | MIC [18]: ≥ 200 µM
Compound: CC[C@H](C)[C@H](NC(=O)[C@H](CCCCN)NC(=O)[C@H](CCCCN)NC(=O)[C@@H](N)Cc1c[nH]c2ccccc12)C(=O)N1CCC[C@H]1C(=O)N[C@@H](CCCCN)C(=O)N[C@@H](Cc1ccccc1)C(=O)N[C@@H](CC(C)C)C(=O)N[C@@H](Cc1cnc[nH]1)C(=O)N[C@@H](CC(C)C)C(=O)N[C@@H](C)C(=O)N[C@@H](CCCCN)C(=O)N[C@@H](CCCCN)C(=O)N[C@@H](Cc1ccccc1)C(N)=O [WKKIPKFLHLAKKF]

MIC (Candida albicans): 42.8 µM (≈ 128 µg/mL) | MIC [19]: > 171 µM | MIC [20]: 5.36 µM (≈ 16 µg/mL) | MIC (Staphylococcus aureus MR): 5.36 µM (≈ 16 µg/mL)
Compound: CC[C@H](C)[C@H](NC(=O)[C@H](Cc1cnc[nH]1)NC(=O)[C@H](CCCCN)NC(=O)CNC(=O)[C@@H](NC(=O)[C@H](CO)NC(=O)[C@H](Cc1ccccc1)NC(=O)[C@H](CC(C)C)NC(=O)CNC(=O)CNC(=O)[C@@H](NC(=O)[C@@H](NC(=O)[C@H](Cc1cnc[nH]1)NC(=O)[C@H](Cc1cnc[nH]1)NC(=O)[C@@H](NC(=O)[C@@H](N)Cc1ccccc1)[C@@H](C)CC)[C@@H](C)CC)[C@@H](C)CC)C(C)C)C(=O)N[C@@H](Cc1cnc[nH]1)C(=O)N[C@@H](CO)C(=O)N[C@@H](CC(C)C)C(=O)N[C@H](C(=O)N[C@@H](Cc1cnc[nH]1)C(=O)N[C@@H](CCCN=C(N)N)C(=O)N[C@@H](CCCN=C(N)N)C(=O)N[C@@H](CCCN=C(N)N)C(=O)N[C@@H](CCCN=C(N)N)C(=O)O)[C@@H](C)CC [FIHHIIGGLFSVGKHIHSLIHRRRR]

MIC (Bacillus subtilis 168): 1.5 µM (≈ 6.35 µg/mL) | MIC [21]: 0.75 µM (≈ 3.17 µg/mL) | MIC (Staphylococcus aureus MR): 3.78 µM (≈ 16 µg/mL) | MIC [22]: 7.55 µM (≈ 32 µg/mL) | MIC [23]: 7.55 µM (≈ 32 µg/mL)
Compound: CC[C@H](C)[C@@H]1NC(=O)[C@@H]2CSSC[C@@H]3NC(=O)[C@H](CCCCN)NC(=O)[C@H](CC(=O)O)NC(=O)[C@H](CCC(N)=O)NC(=O)[C@H](Cc4ccccc4)NC(=O)[C@H](Cc4ccccc4)NC(=O)[C@@H]4CCCN4C(=O)[C@@H](NC(=O)[C@H](Cc4ccc(O)cc4)NC(=O)[C@H](Cc4ccc(O)cc4)NC(=O)CNC(=O)CN)CSSC[C@H](NC(=O)[C@H](Cc4ccc(O)cc4)NC(=O)CNC(=O)[C@H](C)NC(=O)[C@H](CCCCN)NC(=O)[C@H](CCCN=C(N)N)NC(=O)CNC(=O)[C@H](Cc4ccccc4)NC(=O)[C@H](CO)NC(=O)[C@H](CCCN=C(N)N)NC(=O)[C@H](CSSC[C@@H](C(=O)N[C@H](C(=O)O)C(C)C)NC1=O)NC(=O)[C@H](Cc1cnc[nH]1)NC(=O)[C@H](CCCN=C(N)N)NC(=O)[C@H](Cc1cnc[nH]1)NC3=O)C(=O)NCC(=O)NCC(=O)N[C@@H](Cc1ccccc1)C(=O)N[C@@H](CC(C)C)C(=O)N[C@@H](CCCCN)C(=O)N[C@@H](CCCCN)C(=O)N[C@@H]([C@@H](C)O)C(=O)N2 [GGYYCPFFQDKCHRHCRSFGRKAGYCGGFLKKTCICV]

MIC (Bacillus cereus): 15.3 µM (≈ 25 µg/mL) | MIC (Escherichia coli): > 61.4 µM | MIC (Leuconostoc lactis): 7.36 µM (≈ 12 µg/mL) | MIC (Listeria innocua): ≥ 61.4 µM | MIC (Micrococcus luteus): 15.3 µM (≈ 25 µg/mL) | MIC (Pasteurella multocida): ≥ 61.4 µM | MIC (Staphylococcus aureus): 15.3 µM (≈ 25 µg/mL) | MIC [24]: 15.3 µM (≈ 25 µg/mL) | MIC (Streptococcus uberis): 15.3 µM (≈ 25 µg/mL)
Compound: CC[C@H](C)[C@H](NC(=O)[C@H](CC(=O)O)NC(=O)[C@H](Cc1ccccc1)NC(=O)[C@H](CC(C)C)NC(=O)CN)C(=O)N[C@H](C(=O)N[C@@H](CCCCN)C(=O)N[C@@H](CCCCN)C(=O)N[C@H](C(=O)N[C@H](C(=O)NCC(=O)N[C@H](C(=O)N[C@H](C(=O)N[C@@H](C)C(=O)NCC(=O)N[C@@H](CC(C)C)C(N)=O)[C@@H](C)CC)[C@@H](C)O)C(C)C)C(C)C)C(C)C [GLFDIVKKVVGTIAGL]
